Results reported in PMC11352945, “Anticancer Activity of Benzo[a]phenoxazine Compounds Promoting Lysosomal Dysfunction” (Cells, 2024).

Legend:
MCF7 cells [1] = assay: Wound healing assay, MCF7; type: cell-based, human; conditions: MCF7, IC50 and 2 × IC50, 12 h (controls approximately 12.5%)
Description: RKO and MCF7 cells were seeded in 12-well plates at densities of 5 × 10^5 cells/mL and 4.5 × 10^5 cells/mL, respectively. After 24 h, a wound was created by scraping the cell layer using a 1 mm pipette tip. The cells were treated with C9, A36, and A42 at IC50 and 2 × IC50 concentrations or 0.1% DMSO (vehicle). Untreated cells were used as controls. The wound regions were photographed at 0 and 12 h, and migration was assessed using the Image J software. The relative migration was calculated in relation to the untreated controls.

MCF7 cells [2] = assay: Annexin V/PI assay (flow cytometry), MCF7; type: cell-based, human; conditions: MCF7, 2 × IC50 and 4 × IC50, 48 h
Description: RKO and MCF7 cells were seeded in 12-well plates at a density of 1 × 10^5 cells/mL. After 24 h, the cells were treated with C9, A36, and A42 at 2 × IC50 and 4 × IC50 concentrations or 0.1% DMSO (vehicle). Untreated cells were used as controls. After 48 h, floating and adherent cells were collected. The cells were resuspended in […] of binding buffer and treated for 15 min in the dark with 5 μL of Annexin V-FITC (Detection Kit-ab14085) and 5 μL of Propidium Iodide (50 μg/mL). The samples were subjected to flow cytometry analysis, PI fluorescence was detected using the ECD-A channel, and Annexin V fluorescence was detected using the FITC-A channel.
One of the main goals of clinical oncology is the development of compounds and treatments capable of selectively eliminating cancer cells. In this sense, we next evaluated the capability of the compounds to induce cell death in both cell lines. For this, we performed a flow cytometry analysis using annexin V-FITC and propidium iodide PI double staining. The conjugation of these two probes allowed for the discrimination of viable (negative for both), early apoptotic (annexin + and PI−), late apoptotic (annexin+ and PI+), and necrotic (annexin− and PI+) cells. […] Both flouting and attached cells were harvested and double stained.

SMILES: CCCNc1cc2oc3cc(=NCC)c(C)cc-3nc2c2ccccc12 [C9]
- Effect on cell migration (wound closure) (MCF7 cells [1]): more pronounced effect
- Cell death induction (Annexin V/PI) (MCF7 cells [2]): most powerful compounds
